In patent publication US20240199552A1, “AMIDE COMPOUND AND USE THEREOF” (Metisa Biotechnology Co., Ltd, priority 2021, published 2024):

Tests used:
Type in all cases: in vivo
Mythimna separata = test: Insecticidal activity against Mythimna separata, Airbrush spray on maize leaf pieces; conditions: 72 h, 0.05 mg/L, 3 days after the administration, 3rd-instar larvae, read-out: mortality rate against Mythimna separata
Method: (§1) After the compound to be determined was dissolved in a mixed solvent of acetone/methanol (1:1), it was diluted with water containing 0.1% (wt) Tween-80 to a desired concentration.
(§2) Mythimna separata, Diamondback moth, Chilo suppressalis, Spodoptera exigua, Myzus persicae, and Franklinella occidentalis were used as targets, and the activity was tested by an Airbrush spray method.
Determination method: maize leaves were cut into 2 cm leaf pieces, and the front and back of each leaf piece were sprayed under an Airbrush spray treatment pressure of 10 psi (approximate to 0.7 kg/cm^2) and with a spray volume of 0.5 mL. After drying in the shade, 10 3rd-instar larvae were inoculated for each treatment, and each treatment was repeated for 3 times. After the treatment, the leaf pieces were put into an observation chamber at 25° C. and with a relative humidity of 60% to 70%, and the number of living larvae was investigated 3 days after the administration of the compounds, and the mortality rates were calculated.

Spodoptera exigua = test: Insecticidal activity against Spodoptera exigua, leaf disc dipping feeding method; conditions: foliar, 72 h, 0.625 mg/L, 3 days after the administration, read-out: mortality rate against Spodoptera exigua
Method: After the compound to be determined was dissolved in a mixed solvent of acetone/methanol (1:1), it was diluted with water containing 0.1% (wt) Tween-80 to a desired concentration. […]
Determination method: the activity was tested by using a leaf disc dipping feeding method. Leaf discs were dipped in a drug solution for 10 s, and placed in a culture dish after being air-dried, there were 4 discs in each dish, and a filter paper was placed in the culture dish for moisture retention. 10 test insects of Spodoptera exigua were introduced to each dish, with 3 replicates.
They were placed in a light incubator for culture at a temperature of 25° C. and an illumination of 14hL:10hD. On the 1st, 2nd, and 3rd day after the administration, the number of dead Spodoptera exigua was investigated and the mortality rate was calculated.

Chilo suppressalis = test: Insecticidal activity against Chilo suppressalis, sprayed rice stems; conditions: 72 h, 0.625 mg/L, 3 days after the administration, 3rd-instar larvae, read-out: mortality rate against Chilo suppressalis
Method: as §1, §2
Determination method: 1) Preparation of rice seedlings: rice was cultured in a plastic small cup with a diameter of 4.5 cm and a height of 4 cm in a constant temperature room (the temperature was 26-28° C., the relative humidity was about 60-80%, and the illumination was 16hL:8hD), when the rice grown to a 4-5 leaf stage, robust and uniformly grown rice seedlings were selected for pharmaceutical treatment, and 3 replicates were set for each treatment. 2) Preparation of test insects: 3rd-instar larvae of Chilo suppressalis were continuously reared indoors. 3) Rice stems were sprayed and insects were introduced. A spray method was used to treat whole rice seedlings with uniform spray, and each treatment was 15 mL. Blank controls were treated firstly, and then the above operation was repeated in an order of experimental concentrations from low to high. After the spray treatment of the rice seedlings, they were placed in the shade to air-dry drug liquid, about 5 cm of the stem from a basal part of the stem was cut and fed to the test insects. A glass culture dish with a diameter of 90 mm was prepared, filter paper was placed on the bottom of the dish, then water was added to moisturize. About 5 rice stems were placed in each dish, 10 larvae were introduced, and the culture dish was closed with non-woven fabric and placed in the constant-temperature room for culture. 3 days after the administration, the number of residual live insects was investigated.

Myzus persicae = test: Insecticidal activity against Myzus persicae, Airbrush spray on cabbage leaves; conditions: 50 mg/L, after 48 h, read-out: mortality rate against Myzus persicae
Method: as §1, §2
Determination method: a culture dish with a diameter of 6 cm was taken, the bottom of the dish was covered by a layer of filter paper, and an appropriate amount of tap water was added to moisturize the paper. Cabbage leaves with an appropriate size (the diameter was about 3 cm) and 15-30 aphids grown were cut from cabbage plants used to culture Myzus persicae, winged aphids and aphids on the front of the leave were removed, and it was placed in the culture dish while the back of the leave was upward. The pressure of airbrush spray treatment was 10 psi (about 0.7 kg/cm^2), the liquid spray volume was 0.5 mL, and there were 3 replicates for each treatment. After the treatment, the leave was put into an observation room for culture at 25° C. and a relative humidity of 60-70%. After 48 h, the number of live insects was investigated and the mortality rate was calculated.

[1] = test system: Franklinella occidentalis; test: Insecticidal activity against Franklinella occidentalis nymphs, sprayed bean leaves
Method: as §1, §2
Determination method: fresh bean leaves cultivated in a greenhouse were selected, a hand-held Airbrush sprayer was used to spray uniformly, each treatment was 1 mL, and after being air-dried naturally, the leaves were placed in a finger-shaped tube. Neat and healthy Franklinella occidentalis nymphs were introduced, there were 15 nymphs for each treatment, 3 replicates were set for the experiment, and water treatment was set as a blank control. After the treatment, the leaves were put into an indoor culture room for culture at 24° C., a relative humidity of 60-70%, and natural light. After 72 h, the number of live insects was investigated and the mortality rate was calculated.

cat flea = test: Insecticidal experiment on cat flea, thin film in culture dish; conditions: Ctenocephalides felis, 72 h, read-out: mortality rate, cat flea
Method: 4 mg of the compound to be determined was dissolved in 40 mL of acetone to obtain an acetone solution with a concentration of 100 mg/L. 400 μL of the drug solution was applied on the bottom and sides of a culture dish with an inner diameter of 5.3 cm, then after acetone was evaporated, a thin film of the compound of the present invention was made on the inner wall of the culture dish. The inner wall of the culture dish used was 40 cm^2, and the treatment dosage was 1 μg/cm^2. 10 adult cat fleas (mixed male and female) were put into the dish, and it was stored in a constant-temperature room at 25° C. after being covered. The number of dead insects after 72 h was checked and the mortality rate was calculated. The experiment was repeated for 3 times.

Diamondback moth = test: Insecticidal activity against Diamondback moth, Airbrush spray on cabbage leaf discs; conditions: Plutella xylostella, foliar, 72 h, 3 days after the administration; for mortality at 0.156 µg/mL: 0.156 mg/L, read-out: Mortality rate (%, 3 days after the administration) 0.156 mg/L; for mortality at 0.156 µg/mL / mortality at 0.313 µg/mL / mortality at 10 µg/mL: Diamondback moth; for mortality at 0.313 µg/mL: 0.313 mg/L, read-out: Mortality rate (%, 3 days after the administration) 0.313 mg/L; for mortality at 1.25 µg/mL: 1.25 mg/L, 3rd-instar larvae, read-out: mortality rate against Diamondback moth; for mortality at 10 µg/mL: 10 mg/L, read-out: Mortality rate (%, 3 days after the administration) 10 mg/L
Method: as §1, §2
Determination method: cabbage leaves were formed into leaf discs having a diameter of 2 cm using a puncher, and the front and back of each leaf disc were sprayed under an Airbrush spray treatment pressure of 10 psi (approximate to 0.7 kg/cm^2) and with a spray volume of 0.5 mL. After drying in the shade, 10 3rd-instar larvae were inoculated for each treatment, and each treatment was repeated for 3 times. After the treatment, the leaf discs were placed into an observation chamber at 25° C. and with a relative humidity of 60% to 70%, and the number of living larvae was investigated 3 days after the administration of the compounds, and the mortality rates were calculated.

Compound	mortality at 0.05 µg/mL (Mythimna separata)	mortality at 0.625 µg/mL (Spodoptera exigua)	mortality at 0.625 µg/mL (Chilo suppressalis)	mortality at 50 µg/mL (Myzus persicae)	Mortality rate (%, 3 days after the administration) 10 mg/L [1]	Mortality rate (%, 3 days after the administration) 100 mg/L [1]	mortality at 1 µg/cm2 (cat flea)	mortality at 0.156 µg/mL (Diamondback moth)	mortality at 0.313 µg/mL (Diamondback moth)	mortality at 1.25 µg/mL (Diamondback moth)	mortality at 10 µg/mL (Diamondback moth)
C#CCN(C(=O)c1ccc(F)nc1)c1cccc(C(=O)Nc2c(I)cc(C(F)(C(F)(F)F)C(F)(F)F)cc2C(F)(F)F)c1F [Compound 48]	> 90%	> 90%	> 90%	> 90%	100%	100%	> 90%	100%	100%	> 90%	100%
C#CCN(C(=O)c1ccc(F)nc1)c1cccc(C(=O)Nc2c(Br)cc(C(F)(C(F)(F)F)C(F)(F)F)cc2C(F)(F)F)c1F [Compound 47]	> 90%	> 90%	> 90%	> 90%	100%	100%	> 90%	100%	100%	> 90%	100%
C=CCN(C(=O)c1ccc(F)nc1)c1cccc(C(=O)Nc2c(I)cc(C(F)(C(F)(F)F)C(F)(F)F)cc2C(F)(F)F)c1F [Compound 20]	> 90%	> 90%	> 90%	> 90%	100%	100%	> 90%	100%	100%	> 90%	100%
C=CCN(C(=O)c1ccccc1)c1cccc(C(=O)Nc2c(Br)cc(C(F)(C(F)(F)F)C(F)(F)F)cc2C(F)(F)F)c1F [Compound 3]	> 90%	> 90%	> 90%	> 90%	93.33%	100%	> 90%	100%	100%	> 90%	100%
C=CCN(C(=O)c1ccc(F)cc1)c1cccc(C(=O)Nc2c(I)cc(C(F)(C(F)(F)F)C(F)(F)F)cc2C(F)(F)F)c1F [Compound 8]	> 90%	> 90%	> 90%	> 90%	88.89%	100%	> 90%	100%	100%	> 90%	100%
